Measured values as given in patent US20240115745A1, “COMPOUNDS COMPRISING A FIBROBLAST ACTIVATION PROTEIN LIGAND AND USE THEREOF” (3B PHARMACEUTICALS GMBH, priority 2021, published 2024).
Where two headings read alike, the source gives them in different places. *1 amine or outer side, *2 acyl side, *3 side chain or, on linkers, in order; H or OH if unused. Where a SMILES comes first, the peptide text is derived from it. Bridges are numbered along the chain shown (N, C = ends). [ ]: non-standard residue; d: D form. The star is where a group is joined. X4 = O=C(O)CN1CCN(CC(=O)O)CCN(CC(=O)NCCCOCCOCCOCCCN*)CCN(CC(=O)O)CC1; Suc = O=C(CCC(=O)[*:2])[*:1]; 4Amb = NCc1ccc(C(=O)O)cc1; Nle = CCCC[C@H](N)C(=O)O

How the values were obtained:
[1] = molecular target: T1, FAP-expressing human WI-38 fibroblasts (Homo sapiens, UniProt Q12884); assay: Competitive FACS binding assay;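 note: flow cytometry read-out of median Cy5 fluorescence on the cells, plotted versus test compound concentration, with IC50 derived by four-parameter logistic curve fitting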
T1 construct: FAP-expressing human WI-38 fibroblasts (ECACC) were cultured in EMEM; host or cells: WI-38 human fibroblasts
T1 sequence (Q12884 whole entry): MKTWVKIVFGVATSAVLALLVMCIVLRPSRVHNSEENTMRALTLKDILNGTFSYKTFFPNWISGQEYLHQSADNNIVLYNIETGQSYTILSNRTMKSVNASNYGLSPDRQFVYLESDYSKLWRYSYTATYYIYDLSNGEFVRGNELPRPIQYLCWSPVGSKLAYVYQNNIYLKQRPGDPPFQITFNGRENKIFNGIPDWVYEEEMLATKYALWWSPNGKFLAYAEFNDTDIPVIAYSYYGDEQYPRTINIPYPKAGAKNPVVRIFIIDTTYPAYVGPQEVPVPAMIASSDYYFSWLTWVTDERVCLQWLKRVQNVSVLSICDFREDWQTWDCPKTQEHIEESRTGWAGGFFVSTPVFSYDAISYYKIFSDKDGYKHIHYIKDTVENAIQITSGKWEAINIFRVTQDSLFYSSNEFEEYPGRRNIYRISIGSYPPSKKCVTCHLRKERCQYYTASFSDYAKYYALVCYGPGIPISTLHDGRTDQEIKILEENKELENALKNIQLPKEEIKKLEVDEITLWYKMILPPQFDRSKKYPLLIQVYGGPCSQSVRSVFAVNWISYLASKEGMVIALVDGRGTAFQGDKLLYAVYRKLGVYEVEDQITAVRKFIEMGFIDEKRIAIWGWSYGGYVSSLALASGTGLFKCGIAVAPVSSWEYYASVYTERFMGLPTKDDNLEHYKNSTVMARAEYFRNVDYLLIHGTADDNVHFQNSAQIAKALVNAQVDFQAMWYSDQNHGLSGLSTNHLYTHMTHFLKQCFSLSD

Recombinant human FAP = molecular target: T2, Recombinant human FAP (Homo sapiens, UniProt Q12884); assay: FRET-based FAP protease activity assay; type: biochemical
T2 construct: purchased R&D systems 3715-SE
T2 sequence (Q12884 26-760 limits assumed): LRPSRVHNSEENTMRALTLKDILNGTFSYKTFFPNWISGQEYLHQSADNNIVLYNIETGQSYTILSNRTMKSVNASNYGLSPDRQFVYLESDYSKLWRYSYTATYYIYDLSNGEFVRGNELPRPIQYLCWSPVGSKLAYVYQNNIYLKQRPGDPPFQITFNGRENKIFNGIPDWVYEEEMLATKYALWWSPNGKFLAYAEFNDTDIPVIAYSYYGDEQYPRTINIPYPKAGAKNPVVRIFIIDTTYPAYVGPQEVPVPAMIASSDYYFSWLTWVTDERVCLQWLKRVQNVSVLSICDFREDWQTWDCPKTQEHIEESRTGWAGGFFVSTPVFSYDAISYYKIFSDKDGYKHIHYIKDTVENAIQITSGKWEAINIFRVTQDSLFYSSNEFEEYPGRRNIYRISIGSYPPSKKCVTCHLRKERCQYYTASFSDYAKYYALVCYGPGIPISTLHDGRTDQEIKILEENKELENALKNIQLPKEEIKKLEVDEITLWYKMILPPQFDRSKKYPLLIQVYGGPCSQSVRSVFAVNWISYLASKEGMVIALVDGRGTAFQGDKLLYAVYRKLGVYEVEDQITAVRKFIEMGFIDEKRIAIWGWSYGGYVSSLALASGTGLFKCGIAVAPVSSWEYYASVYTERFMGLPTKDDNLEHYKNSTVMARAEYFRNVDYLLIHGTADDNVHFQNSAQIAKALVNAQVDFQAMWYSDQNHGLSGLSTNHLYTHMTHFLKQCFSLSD

[2] = competition with 3 nM Cy5-labeled compound, WI-38 fibroblasts, 4° C., 1 hour, read-out: pIC50 Category (FACS) (converted)
[3] = recombinant human FAP, FRET-peptide substrate, 37° C., read-out: pIC50 Category (Activity) (converted)

Row | Structure (SMILES) | IC50 [1, 2] [nM] | IC50 (Recombinant human FAP; [3]) [nM] | IC50 ([1]; read-out: pIC50 (highest activity categories, FACS binding) (converted)) [nM] | IC50 (Recombinant human FAP; read-out: pIC50 (highest activity categories, FAP activity) (converted)) [nM]
1 | CSCC[C@H](N)C(=O)N[C@H]1CSSC[C@@H](C(=O)N[C@@H](CC(=O)O)C(=O)N[C@@H](Cc2c[nH]cn2)C(=O)N[C@@H](Cc2ccccc2)C(=O)N[C@@H](CCCNC(=N)N)C(=O)N[C@@H](CC(=O)O)C(N)=O)NC(=O)[C@H](Cc2ccccc2)NC(=O)[C@H](CCC(=O)O)NC(=O)[C@H]([C@@H](C)O)NC(=O)[C@@H]2CCCN2C(=O)[C@@H]2CCCN2C1=O [Compound 1001, H-Met-[Cys-Pro-Pro-Thr-Glu-Phe-Cys]-Asp-His-Phe-Arg-Asp-NH2] (HELM PEPTIDE1{M.C.P.P.T.E.F.C.D.H.F.R.D.[am]}$PEPTIDE1,PEPTIDE1,2:R3-8:R3$$$V2.0) | < 100 | < 100 | – | –
2 | CCCCCC(=O)N[C@H]1CSSC[C@@H](C(=O)N[C@@H](CC(=O)O)C(=O)N[C@@H](Cc2c[nH]cn2)C(=O)N[C@@H](Cc2ccccc2)C(=O)N[C@@H](CCCNC(=N)N)C(=O)N[C@@H](CC(=O)O)C(N)=O)NC(=O)[C@H](Cc2ccccc2)NC(=O)[C@H](CCC(=O)O)NC(=O)[C@H]([C@@H](C)O)NC(=O)[C@@H]2CCCN2C(=O)[C@@H]2CCCN2C1=O [Compound 1002, Hex-[Cys-Pro-Pro-Thr-Glu-Phe-Cys]-Asp-His-Phe-Arg-Asp-NH2] (HELM PEPTIDE1{[CCCCCC(=O)[*:2]].C.P.P.T.E.F.C.D.H.F.R.D.[am]}$PEPTIDE1,PEPTIDE1,2:R3-8:R3$$$V2.0) | < 100 | < 100 | – | –
3 | CCCC[C@H](NC(=O)CCC(=O)NCCCOCCOCCOCCCNC(=O)CN1CCN(CC(=O)O)CCN(CC(=O)O)CCN(CC(=O)O)CC1)C(=O)N[C@H]1CSSC[C@@H](C(=O)N[C@@H](CC(=O)O)C(N)=O)NC(=O)[C@H](Cc2ccccc2)NC(=O)[C@H](CCC(=O)O)NC(=O)[C@H]([C@@H](C)O)NC(=O)[C@@H]2CCCN2C(=O)[C@@H]2CCCN2C1=O [Compound 1003, DOTA-Ttds-Nle-[Cys-Pro-Pro-Thr-Glu-Phe-Cys]-Asp-NH2] ({X4-Suc}-[Nle]CPPTEFCD-NH2; disulfide 2-8) | < 100 | < 100 | – | –
4 | CCCC[C@H](NC(=O)CN1CCN(CC(=O)O)CCN(CC(=O)O)CCN(CC(=O)O)CC1)C(=O)N[C@H]1CSSC[C@@H](C(=O)N[C@@H](CC(=O)O)C(N)=O)NC(=O)[C@H](Cc2ccccc2)NC(=O)[C@H](CCC(=O)O)NC(=O)[C@H]([C@@H](C)O)NC(=O)[C@@H]2CCCN2C(=O)[C@@H]2CCCN2C1=O [Compound 1004, DOTA-Nle-[Cys-Pro-Pro-Thr-Glu-Phe-Cys]-Asp-NHd2] (HELM PEPTIDE1{[O=C(O)CN1CCN(CC(=O)O)CCN(CC(=O)[*:2])CCN(CC(=O)O)CC1].[Nle].C.P.P.T.E.F.C.D.[am]}$PEPTIDE1,PEPTIDE1,3:R3-9:R3$$$V2.0) | < 100 | < 100 | – | –
5 | CCCC[C@H](NC(=O)COCCOCCNC(=O)CN1CCN(CC(=O)O)CCN(CC(=O)O)CCN(CC(=O)O)CC1)C(=O)N[C@H]1CSSC[C@@H](C(=O)N[C@@H](CC(=O)O)C(=O)N[C@@H](Cc2c[nH]cn2)C(=O)N[C@@H](Cc2ccccc2)C(=O)N[C@@H](CCCNC(=N)N)C(=O)N[C@@H](CC(=O)O)C(N)=O)NC(=O)[C@H](Cc2ccccc2)NC(=O)[C@H](CCC(=O)O)NC(=O)[C@H]([C@@H](C)O)NC(=O)[C@@H]2CCCN2C(=O)[C@@H]2CCCN2C1=O [Compound 1005, DOTA-O2Oc-Nle-[Cys-Pro-Pro-Thr-Glu-Phe-Cys]-Asp-His-Phe-Arg-Asp-NH2] (HELM PEPTIDE1{[O=C(O)CN1CCN(CC(=O)O)CCN(CC(=O)[*:2])CCN(CC(=O)O)CC1].[O=C(COCCOCCN[*:1])[*:2]].[Nle].C.P.P.T.E.F.C.D.H.F.R.D.[am]}$PEPTIDE1,PEPTIDE1,4:R3-10:R3$$$V2.0) | < 100 | < 100 | < 100 | < 100
6 | CCCC[C@H](NC(=O)CCC(=O)NCCCOCCOCCOCCCNC(=O)CN1CCN(CC(=O)O)CCN(CC(=O)O)CCN(CC(=O)O)CC1)C(=O)N[C@H]1CSSC[C@@H](C(=O)N[C@@H](CC(=O)O)C(=O)N[C@@H](Cc2c[nH]cn2)C(=O)N[C@@H](Cc2ccccc2)C(=O)N[C@@H](CCCNC(=N)N)C(=O)N[C@@H](CC(=O)O)C(N)=O)NC(=O)[C@H](Cc2ccccc2)NC(=O)[C@H](CCC(=O)O)NC(=O)[C@H]([C@@H](C)O)NC(=O)[C@@H]2CCCN2C(=O)[C@@H]2CCCN2C1=O [Compound 1006, DOTA-Ttds-Nle-[Cys-Pro-Pro-Thr-Glu-Phe-Cys]-Asp-His-Phe-Arg-Asp-NH2] ({X4-Suc}-[Nle]CPPTEFCDHFRD-NH2; disulfide 2-8) | < 100 | < 100 | – | –
7 | CCCC[C@H](NC(=O)CCC(=O)NCCCOCCOCCOCCCNC(=O)CN1CCN(CC(=O)O)CCN(CC(=O)O)CCN(CC(=O)O)CC1)C(=O)N[C@H]1CSSC[C@@H](C(=O)N[C@@H](CC(=O)O)C(=O)NCc2ccc(C(=O)N[C@@H](CCCNC(=N)N)C(N)=O)cc2)NC(=O)[C@H](Cc2ccccc2)NC(=O)[C@H](CCC(=O)O)NC(=O)[C@H]([C@@H](C)O)NC(=O)[C@@H]2CCCN2C(=O)[C@@H]2CCCN2C1=O [Compound 1007, DOTA-Ttds-Nle-[Cys-Pro-Pro-Thr-Glu-Phe-Cys]-Asp-Pamb-Arg-NH2] ({X4-Suc}-[Nle]CPPTEFCD[4Amb]R-NH2; disulfide 2-8) | < 100 | < 100 | – | –
8 | CCCC[C@H](NC(=O)CCC(=O)NCCCOCCOCCOCCCNC(=O)CN1CCN(CC(=O)O)CCN(CC(=O)O)CCN(CC(=O)O)CC1)C(=O)N[C@H]1CSSC[C@@H](C(=O)N[C@@H](CC(=O)O)C(N)=O)NC(=O)[C@H](Cc2ccccc2)NC(=O)[C@H](CCC(N)=O)NC(=O)[C@H]([C@@H](C)O)NC(=O)[C@@H]2CCCN2C(=O)[C@@H]2CCCN2C1=O [Compound 1008, DOTA-Ttds-Nle-[Cys-Pro-Pro-Thr-Gln-Phe-Cys]-Asp-NH2] ({X4-Suc}-[Nle]CPPTQFCD-NH2; disulfide 2-8) | < 100 | < 100 | – | –
9 | CCCC[C@H](NC(=O)CCC(=O)NCCCOCCOCCOCCCNC(=O)CN1CCN(CC(=O)O)CCN(CC(=O)O)CCN(CC(=O)O)CC1)C(=O)N[C@H]1CSSC[C@@H](C(=O)O)NC(=O)[C@H](Cc2ccccc2)NC(=O)[C@H](CCC(N)=O)NC(=O)[C@H]([C@@H](C)O)NC(=O)[C@@H]2CCCN2C(=O)[C@@H]2CCCN2C1=O [Compound 1009, DOTA-Ttds-Nle-[Cys-Pro-Pro-Thr-Gln-Phe-Cys]-OH] | < 100 | < 100 | – | –
10 | CCCC[C@H](NC(=O)CCC(=O)NCCCOCCOCCOCCCNC(=O)CN1CCN(CC(=O)O)CCN(CC(=O)O)CCN(CC(=O)O)CC1)C(=O)N[C@H]1CSSC[C@@H](C(=O)NCCC(=O)O)NC(=O)[C@H](Cc2ccccc2)NC(=O)[C@H](CCC(N)=O)NC(=O)[C@H]([C@@H](C)O)NC(=O)[C@@H]2CCCN2C(=O)[C@@H]2CCCN2C1=O [Compound 1010, DOTA-Ttds-Nle-[Cys-Pro-Pro-Thr-Gln-Phe-Cys]-Bal-OH] | < 100 | < 100 | – | –
11 | CCCCCC(=O)N[C@H]1CSSC[C@@H](C(=O)N[C@@H](CCCCNC(=O)CN2CCN(CC(=O)O)CCN(CC(=O)O)CCN(CC(=O)O)CC2)CC(=O)O)NC(=O)[C@H](Cc2ccccc2)NC(=O)[C@H](CCC(N)=O)NC(=O)[C@H]([C@@H](C)O)NC(=O)[C@@H]2CCCN2C(=O)[C@@H]2CCCN2C1=O [Compound 1011, Hex-[Cys-Pro-Pro-Thr-Gln-Phe-Cys]-Bhk(DOTA)-OH] | < 100 | < 100 | – | –
